Measurements from patent US12637464B2, “Tetracyclic compounds for treating brain disorders” (The Regents of the University of California, priority 2021, dated 2026).

System: PSYLI2 cells
Assay: PsychLight assays (agonist and antagonist mode)
Format: cell-based
Settings: FIG. 3C-3E; agonist mode concentration-response, antagonist mode 1 μM
Description: PsychLight Assays. Psychlight assays were performed using a previously published method. Briefly, glass bottom 96-well plates were coated with 50 μg/mL of poly-D-lysine overnight at room temperature and then washed with Dulbecco's PBS. PSYLI2 cells were suspended in DMEM containing 10% FBS with 5% penicillin-streptomycin, plated at a density of 40,000 cells/well, and incubated (37° C., 5% CO2) for 24 h prior to each experiment. Immediately before an experiment, stock solutions of drugs in DMSO were diluted 1:100 in imaging media distributed across an empty 96-well plate (treatment plate) following a randomized plate map. The imaging media consisted of 1×HBSS containing […] and […]. […] Data were from 2 plates with 2-3 wells being analyzed per plate. […]
Once imaging was complete, the images were exported, and analyzed using a custom Python script. […] The mask was generated by calculating the average fluorescence intensity for the entire image and using that value as a threshold. […] The % ΔF/F values for each well were calculated using the following equation: […]
Once imaging was complete, the images were exported, and analyzed using a custom Python script. […] The mask was generated by calculating the average fluorescence intensity for the entire image and using that value as a threshold. […]

CCN(CC)C(=O)[C@H]1C=C2c3cccc4ccn(c34)C[C@@H]2N(C)C1 [(−)-JRT]
hallucinogenic potential (psychLight): low hallucinogenic potential
